“Also recorded” adds a separate entry of the source.
Legend:
E. coli [1] = tested on: E. coli; design: method as in PMID 3891732; conditions: in vitro; cited from earlier work
S. aureus = assay: Bacterial uptake and incorporation of AeK-NBD, flow cytometry; format: cell-based, Staphylococcus aureus
Description: (§1) Bacterial cell cultures (either live or heat-killed) of E. coli or S. aureus (1.0 McFarland standard) were prepared as described above. For bacterial staining, 2.0 μL (100 mM in DMSO) of fluorescent AeK-NBD was added to 198 μL of bacterial culture (7.7 × 10^7 cells/mL), and cells were counterstained with 2.0 μL (10 μM in DMSO) of membrane-permeable DNA Vybrant DyeCycle (VDC) Ruby dye (Thermo Fisher Scientific, Waltham, MA, USA). All cultures were incubated at 37 °C, and samples were taken at different intervals (10, 30, and 60 min) to perform flow cytometric analysis (Cytoflex, Beckman Coulter Life Sciences, Brea, CA, USA). AeK-NBD was excited with a 488 nm laser, and the emitted fluorescence was collected using a 540/30 nm band pass filter, as carried out previously. The VDC Ruby dye was excited with a 638 nm laser, and the emitted fluorescence was collected using a 712/25 nm band pass filter. No noticeable spillover was observed when VDC Ruby ‘only’ and AeK-NBD ‘only’ controls were used as controls for possible fluorescence spillover. […] The NBD-AeK median fluorescence intensity (MFI) of VDC Ruby-positive bacteria was reported. […]
(§2) Sample preparation of E. coli and S. aureus suspensions for confocal fluorescence microscopy imaging involved immediate staining with AeK-NBD and membrane-permeable DNA VDC Ruby dye for 10 min, as described in the previous section. […]

E. coli [2] = assay: as above; format: cell-based, Escherichia coli
Description: as §1, §2

Substance | bacterial uptake / utilisation in PG recycling pathway (E. coli [1]) | time at which bacterial incorporation was observed (S. aureus; S. aureus, 37 °C) | fluorescence intensity in live cells (flow cytometry) (S. aureus; live S. aureus, significantly decreased in heat-killed cultures (p < 0.05), up to 60 min) | time at which bacterial incorporation was observed (E. coli [2]; E. coli, 37 °C) | fluorescence intensity in live cells (flow cytometry) (E. coli [2]; live E. coli, significantly decreased in heat-killed cultures (p < 0.05), up to 60 min)
L-Ala-γ-D-Glu-[^3H]A2pm | successful in vitro integration; also recorded: effectively utilized by E. coli | – | – | – | –
L-Ala-γ-D-Glu-L-Lys-N-7-nitro-2,1,3-benzoxadiazol-4-yl [AeK-NBD] | – | 10 min | high fluorescence intensity | 10 min | high fluorescence intensity
^3H-labeled disaccharide-(L-Ala-D-Glu-meso-A2pm) tripeptide | lack of bacterial uptake and internalization | – | – | – | –

Reference: article PMC11434960, “Evaluation of [^68Ga]Ga-DOTA-AeK as a Potential Imaging Tool for PET Imaging of Cell Wall Synthesis in Bacterial Infections” (Pharmaceuticals, 2024)
